Source: article PMC12298827, “Subchronic Toxicities of Four Per- and Polyfluoroalkyl Substances (PFASs) by Oral Exposure in Sprague–Dawley Rats” (Toxics, 2025)

Experiments:
male SD rats = test: Single-dose tolerability study, oral gavage; assay type: in vivo, rat; settings: single oral dose in corn oil, n = 3/dose
Protocol: Tolerability, 14-day dose-range-finding, and 90-day subchronic toxicity studies were conducted at Inotiv (Gaithersburg, MD, USA), monitored by the Research Triangle Institute (RTI) (Durham, NC, USA) and sponsored and funded by the EPA. Tolerability studies used four PFAS dose levels plus a control, with the high doses not to exceed 1000 mg/kg (subject to solubility in corn oil, dose volume of 5 or 10 mL/kg) and lower doses separated by threefold spacing. The dose levels for PFHI, MHFPK, and CTFPA were […]. The dose levels for PFNAC were 0, 25, 75, 225, and 667 mg/kg. Tolerability was studied using male rats (n = 3 rats/group) that received a single dose by oral gavage. The rats were euthanized at 48 hours post dosing. The data collected were bodyweight (BW) and BW changes (BWCs), feed consumption (FC) and water consumption (WC), cage-side observations, and physical exams; no necropsies were performed.

[1] = Parent chemical in rat plasma, 14-day study; assay type: in vivo; settings: for concentration at 15 day: Sprague-Dawley, rat, plasma, oral; for Percentage of the dose in the plasma: 14 days
Protocol: Dose-range-finding (14-day) studies were conducted using male and female rats to establish dose levels for 90-day studies and identify potential target organ toxicities. Male and female rats (n = 5 sex/group, a control and three dose groups, corn oil vehicle dose volume of 5 mL/kg) were administered PFASs by oral gavage daily for 14 days and euthanized on study day (SD) 15. The dose levels for PFHI, CTFPA, and MHFPK were 0, 30, 100, and 300 mg/kg-day. The dose levels for PFNAC were 0, 10, 30, and 100 mg/kg-day. The in vivo data collected included BW, BWCs, FC, cage-side observations, and physical exams. Gross necropsies, relative and absolute organ weights, and clinical chemistry data were collected for all the groups. Macroscopic and microscopic pathology examinations were conducted for the control and high-dose groups initially; the other groups were examined if justified by experimental findings. Plasma samples were analyzed ~2 h post dosing on day 1 and at day 15 for the parent PFAS chemical.
On SD 1 of the 14-day study (~2 h post dosing), 0.2 mL of blood was collected via tail vein puncture in tubes containing K3EDTA and stored on wet ice. Prior to the scheduled euthanasia, blood (~1 mL) was collected from the jugular vein in tubes containing K3EDTA and stored on wet ice on SD 15, for the 14-day study, and SD 91, for the 90-day study. All the tubes were centrifuged at an ~1500 relative centrifugal force within 1 h of collection for 15 min at 5 ± 3 °C. The plasma was stored at −75 ± 15 °C until the analysis. PFNAC and PFHI were analyzed using a headspace GC–mass spectrometry (MS) method, as summarized in Table S3, and CTFPA was analyzed using an ultra-HPLC-MS method, as summarized in Table S4. The MHFPK samples were not analyzed because a method suitable for plasma was not available. The details concerning the preparation of the samples, method blanks, and matrix and QC standards for the analysis are available in the appendices to the study reports.

[2] = male, Day 1 (2 hours post dosing), 30 mg/kg-day
[3] = male, Day 1 (2 hours post dosing), 100 mg/kg-day
[4] = male, Day 1 (2 hours post dosing), 300 mg/kg-day

SMILES | Summary of observations (male SD rats) | Lower plasma concentration for SD 15 compared to SD 1 ([1]; 14-day study) | concentration at 15 day ([1]; female, Day 15, 300 mg/kg-day) [ng/mL] | concentration at 15 day ([1]; male, Day 15, 100 mg/kg-day) [ng/mL] | concentration at 15 day ([1]; male, Day 15, 300 mg/kg-day) [ng/mL] | Parent chemical in plasma ([1]; female, Day 1, 30 mg/kg-day) | Parent chemical in plasma ([1]; female, Day 1, 100 mg/kg-day) | Parent chemical in plasma ([1]; female, Day 1, 300 mg/kg-day) | Parent chemical in plasma ([1]; female, Day 15, 30 mg/kg-day) | Parent chemical in plasma ([1]; female, Day 15, 100 mg/kg-day) | Parent chemical in plasma [1, 2] | Parent chemical in plasma [1, 3] | Parent chemical in plasma [1, 4] | Parent chemical in plasma ([1]; male, Day 15, 30 mg/kg-day) | concentration at 15 day ([1]; female, Day 15, 30 mg/kg-day) [ng/mL] | concentration at 15 day ([1]; female, Day 15, 100 mg/kg-day) [ng/mL] | concentration at 15 day ([1]; male, Day 15, 30 mg/kg-day) [ng/mL] | Percentage of the dose in the plasma ([1]; female, 100 mg/kg-day) [%] | Percentage of the dose in the plasma ([1]; male, 30 mg/kg-day) [%] | Parent chemical in plasma ([1]; male, Day 15, 100 mg/kg-day)
FC(F)(F)C(F)(F)C(F)(F)C(F)(F)CCI [PFHI, 1H,1H,2H,2H-Perfluorohexyl iodide] | No mortality and no abnormal clinical observations, no effect on bodyweight; some bodyweight changes in high-dose group were considered as chemical-related | 10- to 100 fold | 14.3 ± 7.12 | 4.87 ± 1.93 | 26.7 ± 8.79 | 14.7 ± 8.21 ng/mL | 470 ± 427 ng/mL | 1070 ± 689 ng/mL | ND/BLOD | ≤LOQ | 159 ± 79.3 ng/mL | 333 ± 147 ng/mL | 2040 ± 1250 ng/mL | <BLOD/≤LOQ | – | – | – | – | – | –
O=C(O)C(F)(Cl)C(F)(F)F (centres unmarked) [CTFPA, 2-Chloro-2,3,3,3-tetrafluoropropanoic acid] | No mortality and no effect on absolute bodyweight gains or water consumption; clinical observations of low activity, decreased bodyweight and decreased feed consumption at high doses | – | 123000 | 99100 | 120000 | 46,700 ± 10,000 ng/mL | 107,000 ± 30,400 ng/mL | 297,000 ± 56,500 ng/mL | – | – | 48,400 ± 8430 ng/mL | 122,000 ± 43,800 ng/mL | 321,000 ± 60,600 ng/mL | – | 27200 | 45400 | 49800 | 1.75 ± 0.67 | 6.39 ± 2.03 | –
C=CC(=O)OCC(F)(F)C(F)(F)C(F)(F)C(F)(F)C(F)(F)C(F)(F)C(F)(F)C(F)F [PFNAC, 1H,1H,9H-Perfluorononyl acrylate] | No mortality and no abnormal clinical observations, some lowering of bodyweight, bodyweight changes, and feed consumption in all the treated groups not reaching statistical significance | – | – | – | – | – | Parent chemical not detected at the highest dose | – | – | Parent chemical not detected at the highest dose | – | Parent chemical not detected at the highest dose | – | – | – | – | – | – | – | Parent chemical not detected at the highest dose
CC(=O)C(F)(F)C(F)(F)C(F)(F)F [MHFPK, Methyl heptafluoropropyl ketone] | No mortality. Clinical signs of low activity and minimal ataxia on study day 1 at 1000 mg/kg, with recovery on the following two observation days | – | – | – | – | – | – | – | – | – | – | – | – | – | – | – | – | – | – | –
